Results from US6916793B2, “Selenium-containing pro-drugs for cancer therapy” (priority 1999, dated 2005).
Where two headings read alike, the source gives them in different places.

How the values were obtained:
A549 cells [1] = test: Combined effect of SeMet with BCNU, cell survival; assay type: cell-based, human; settings: A549 transfected with rAd-MET, 20% FBS
Description: A549 cells that had been transfected with rAd-MET were cultured in RPMI with 20% FBS with and without 8 μM SeMet. In each case, duplicate samples were cultured without BCNU and in the presence of 300 μM BCNU. Cell survival was determined […]. With no treatment, 100% of the cells survived; in the presence of SeMet alone, 80% of the cells survived. In the absence of SeMet, but in the presence of BCNU, 55% cell survival was obtained; in the presence of 8 μM SeMet and 300 μM BCNU, less than 10% of the cells survived. Thus, SeMet dramatically enhances the effect of BCNU.

[2] = tested on: A549 human lung cancer cells; test: Combined variation of rAd-MET and SeMet, percentage of surviving cells; assay type: cell-based
Description: The experiments described in Examples 2 and 3 were performed on A549 human lung cancer cells using varying concentrations of SeMet from 0-40 μM and of virus rAd-MET titer of 0-8×10^5 pfu using rAd as a control. Percentage of surviving cells was again used as an index of efficacy.

A549 cells [3] = test: ROS generation, lucigenin-dependent chemiluminescence; assay type: cell-based, human; settings: for chemiluminescence relative to control: 30 minutes
Description: It is believed that selenium cytotoxicity is mediated by generation of reactive oxygen species (ROS). This can be measured by standard techniques which employ lucigenin-dependent chemiluminescence as described by Yan, L., et al., Biochem Pharmacol (1993) 45:429-437, cited above.
A549 cells were transduced with rAd-MET at MOI of 50, 24 hours before measurement. The cells (1×10^6) were incubated in 1 ml RPMI in the presence of SeMet with or without 10 units of superoxide dismutase (SOD) for 30 minutes. Lucigenin (50 μg) was added to the cell suspension just prior to measurement and integrated chemiluminescence was measured for 10 seconds, three times, using a TD21 luminometer (Turner Designs).

OVCAR-8 = test: MTT assay, serial dilutions of SeMet on transduced cells; assay type: cell-based, human; settings: for IC50: Homo sapiens
Description: (§1) Cells (4×10^3) of various tumor lines were seeded onto 96-well plates. After 24 hours, serial dilutions of the methioninase expressing vector (rAd-MET) or a control vector containing no methioninase encoding nucleotide sequence (rAd) were added to the wells with and without 20 μM of selenomethionine (SeMet) (20 μM). After incubating the plates for three (3) days, the medium was replaced with 0.5 mg/ml MTT for two (2) hours and analyzed using a microplate reader (BioRad), in a standard MTT assay. Results were recorded as percentage of surviving cells.
(§2) The cell lines were also evaluated for their response to varying concentrations of SeMet. In these protocols, the cells were seeded as above into 96-well plates and infected with 4×10^5 pfu of rAd-MET or control rAd. After 24 hours, serial dilutions of SeMet were added and three (3) days later cytotoxicity was evaluated with the MTT assay as described in Example 2. The results are shown for OVCAR-8 cells in FIG. 6.

A549 cells [4] = test: Combined effect of SeMet with doxorubicin, cell survival; assay type: cell-based, human; settings: A549 transfected with rAd-MET, 10% FBS
Description: In a similar experiment, A549 cells that had been transfected with rAd-MET were cultured in RPMI with 10% FBS in the presence and absence of 4 μM SeMet and with and without 0.4 μM doxorubicin. In the presence of doxorubicin alone, a 75% cell survival rate was obtained; when SeMet was present alone, a 60% cell survival rate was obtained.

keratinocytes = settings: at the concentrations studied; cited from earlier work
EKVX = test: MTT assay, serial dilutions of SeMet on transduced cells; assay type: cell-based; settings: Homo sapiens
Description: as §1, §2

MIA PaCa-2 = test: as above; assay type: cell-based; settings: Homo sapiens
Description: as §1, §2

BxPC-3 = test: as above; assay type: cell-based; settings: Homo sapiens
Description: as §1, §2

Hep-2 = test: as above; assay type: cell-based; settings: Homo sapiens
Description: as §1, §2

A549 = test: as above; assay type: cell-based; settings: Homo sapiens
Description: as §1, §2

human tumor cell lines = test: MTT assay, summary statements over all tumor cell lines; assay type: cell-based; settings: virtually all cell lines
Description: as §1
The cell lines tested were human cancer cell lines OVCAR-8 (ovarian cancer), A549 and EKVX (lung cancer), Hep-2 (head and neck cancer), MIA PaCa-2 and BxPC-3 (pancreatic cancer), human rhabdomyosarcoma cell line A204 and human prostate cell line PC-3. The results with respect to the OVCAR-8 cell line and cell lines A204, and PC-3 are shown in FIGS. 2, 3 and 4 in X/Y graphs; FIG. 5 is a bar graph of the results with respect to the A549 cell line.
as §2, with “The results are shown for OVCAR-8 cells in FIG. 6.” left out

Structure (SMILES): O=NN(CCCl)C(=O)NCCCl [BCNU, reference compound]
- cell survival (A549 cells [1]; 300 μM BCNU, no SeMet): 55%

Structure (SMILES): C[Se]CC[C@H](N)C(=O)O [SeMet, selenomethionine]
- toxicity of selenomethionine itself ([2]; A549, control vector, SeMet 20-40 μM, FIG. 7): slight toxicity
- cells survived ([2]; A549, rAd-MET 4×10^5, SeMet 2.5 μM): 50%
- cell survival ([2]; A549, rAd-MET 8×10^5 pfu, SeMet 5 μM or more): substantially no cells survived
- viability ([2]; A549, rAd-MET 5,000 pfu, SeMet 20-40 μM, FIG. 8): drastically reduced viability
- effect of superoxide dismutase on SeMet-dependent chemiluminescence (A549 cells [3]; 10 units SOD, 160 μM and 40 μM SeMet): inhibited by SOD
- chemiluminescence relative to control (A549 cells [3]; A549 transduced with rAd-MET MOI 50, 40 μM SeMet): 20 times
- chemiluminescence relative to control (A549 cells [3]; A549 transduced with rAd-MET MOI 50, 160 μM SeMet): over 100 times
- IC50 (OVCAR-8; OVCAR-8, read-out: SeMet IC50 (μM)): 224 µM
- IC50 (OVCAR-8; OVCAR-8, read-out: SeMet IC50 (μM), OVCAR-8 transduced with Control-rAd 4×10^5 pfu): 170 µM
- IC50 (OVCAR-8; OVCAR-8, read-out: SeMet IC50 (μM), OVCAR-8 transduced with rAd-MET 4×10^5 pfu): 0.59 µM
- lowering of IC50 for SeMet in the presence of rAd-MET as compared to control rAd (OVCAR-8; OVCAR-8 cells, FIG. 6): lowered over a thousandfold
- cell survival rate (A549 cells [4]; 4 μM SeMet alone): 60%
- cytotoxicity in keratinocytes (keratinocytes): not cytotoxic
- induction of apoptosis in keratinocytes (keratinocytes): did not induce cellular apoptosis
- IC50 (EKVX; read-out: SeMet IC50 (μM)): 1360 µM
- IC50 (EKVX; read-out: SeMet IC50 (μM), EKVX transduced with Control-rAd 4×10^5 pfu): 686 µM
- IC50 (EKVX; read-out: SeMet IC50 (μM), EKVX transduced with rAd-MET 4×10^5 pfu): 1.66 µM
- IC50 (MIA PaCa-2; MIA PaCa-2, read-out: SeMet IC50 (μM)): 422 µM
- IC50 (MIA PaCa-2; MIA PaCa-2, read-out: SeMet IC50 (μM), MIA PaCa-2 transduced with Control-rAd 4×10^5 pfu): 338 µM
- IC50 (MIA PaCa-2; MIA PaCa-2, read-out: SeMet IC50 (μM), MIA PaCa-2 transduced with rAd-MET 4×10^5 pfu): 3.86 µM
- IC50 (BxPC-3; BXPC-3, read-out: SeMet IC50 (μM)): 312 µM
- IC50 (BxPC-3; BXPC-3, read-out: SeMet IC50 (μM), BxPC-3 transduced with Control-rAd 4×10^5 pfu): 223 µM
- IC50 (BxPC-3; BXPC-3, read-out: SeMet IC50 (μM), BxPC-3 transduced with rAd-MET 4×10^5 pfu): 3.38 µM
- IC50 (Hep-2; HEp-2, read-out: SeMet IC50 (μM)): 411 µM
- IC50 (Hep-2; HEp-2, read-out: SeMet IC50 (μM), Hep-2 transduced with Control-rAd 4×10^5 pfu): 387 µM
- IC50 (Hep-2; HEp-2, read-out: SeMet IC50 (μM), Hep-2 transduced with rAd-MET 4×10^5 pfu): 1.66 µM
- IC50 (A549; A549, read-out: SeMet IC50 (μM)): 486 µM
- IC50 (A549; A549, read-out: SeMet IC50 (μM), A549 transduced with Control-rAd 4×10^5 pfu): 327 µM
- IC50 (A549; A549, read-out: SeMet IC50 (μM), A549 transduced with rAd-MET 4×10^5 pfu): 0.5 µM
- cell survival (A549 cells [1]; 8 μM SeMet alone): 80%
- change in IC50 for SeMet in the presence of rAd-MET (human tumor cell lines): dramatic decrease in IC50

Structure (SMILES): COc1cccc2c1C(=O)c1c(O)c3c(c(O)c1C2=O)C[C@@](O)(C(=O)CO)C[C@@H]3O[C@H]1C[C@H](N)[C@H](O)[C@H](C)O1 [doxorubicin, reference compound]
- cell survival rate (A549 cells [4]; 0.4 μM doxorubicin alone): 75%

Structure (SMILES): O=[Se](O)O [selenite]
- cytotoxicity in keratinocytes (keratinocytes): cytotoxic
- induction of apoptosis in keratinocytes (keratinocytes): induced apoptosis

Structure (SMILES): NCC[Se][Se]CCN [selenocystamine]
- cytotoxicity in keratinocytes (keratinocytes): cytotoxic
- induction of apoptosis in keratinocytes (keratinocytes): induced apoptosis

Structure (SMILES): N[C@@H](C[Se][Se]C[C@H](N)C(=O)O)C(=O)O [selenocystine]
- cytotoxicity in keratinocytes (keratinocytes): cytotoxic
- induction of apoptosis in keratinocytes (keratinocytes): induced apoptosis
